# Patent US10065948B2, “Histone deacetylase inhibitors and compositions and methods of use thereof” (CHDI Foundation, Inc., priority 2014, dated 2018)
# Columns and labels:
# [1] = tested on: cellular histone deacetylase enzymatic activity in Jurkat E6-1 cells; test: Inhibition of cellular HDAC activity, Boc-Lys(Tfa)-AMC substrate (Cell Lys-TFA); assay type: cell-based
# In short: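 Jurkat E6-1 cells (75,000/well) were treated with a 16-point compound dilution for 2 h at 37 °C, then exposed to Boc-Lys(Tfa)-AMC for 3 h. Lysis buffer containing trypsin was added overnight (15-16 h), and AMC fluorescence was read at Ex 355/Em 460 nm.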
# [2] = target: Histone Deacetylase 4 (HDAC4) catalytic domain (Homo sapiens (Human), UniProt P56524); test: Biochemical HDAC inhibition assay, fluorogenic substrate Boc-Lys(Tfa)-AMC
# In short: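 Human HDAC4 catalytic domain (aa 648-1032, C-terminal His6) at 0.2 μg/mL working solution was tested against a 16-point compound dilution series in Tris buffer pH 8.0 for 15 min at 37 °C. Substrate Boc-Lys(Tfa)-AMC was prepared at 50 μM (5×). The reaction was stopped with trypsin plus reference inhibitor for 1 h at 37 °C, and AMC fluorescence was read at Ex 355/Em 460 nm.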
# [3] = tested on: cellular histone deacetylase activity (Lys-Ac); test: Inhibition of cellular HDAC activity (Cell Lys-Ac); assay type: cell-based; settings: Lys-Ac substrate
# [4] = Homo sapiens, Jurkat E6.1, Lys-TFA substrate
# Chain of Histone Deacetylase 4 (HDAC4) catalytic domain (P56524 648-1032): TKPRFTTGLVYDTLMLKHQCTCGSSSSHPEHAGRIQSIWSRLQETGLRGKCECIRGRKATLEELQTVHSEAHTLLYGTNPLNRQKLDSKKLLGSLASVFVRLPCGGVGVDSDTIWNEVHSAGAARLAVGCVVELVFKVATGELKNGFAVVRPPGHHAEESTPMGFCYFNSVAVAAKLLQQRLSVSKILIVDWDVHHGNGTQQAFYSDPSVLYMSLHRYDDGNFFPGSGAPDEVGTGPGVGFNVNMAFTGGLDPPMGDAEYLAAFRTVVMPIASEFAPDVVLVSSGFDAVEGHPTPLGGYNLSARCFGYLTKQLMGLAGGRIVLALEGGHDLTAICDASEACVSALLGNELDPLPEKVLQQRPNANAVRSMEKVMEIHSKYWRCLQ
SMILES,"IC50 [1, 4] [nM]",IC50 [2] [nM],IC50 [3] [nM],IC50 ([1]; Lys-TFA substrate) [nM]
"Cc1c(F)cccc1[C@]1(C(=O)NO)Cc2cn(-c3ncccc3Cl)nc2C1 [Example 28, (S)-2-(3-Chloropyridin-2-yl)-5-(3-fluoro-2-methylphenyl)-N-hydroxy-2,4,5,6-tetrahydrocyclopenta[c]pyrazole-5-carboxamide]",69,65,> 50000,
"Cc1c(F)cccc1[C@]1(C(=O)NO)Cc2cnn(-c3ccccc3F)c2C1 [Example 3, (S)-5-(3-Fluoro-2-methylphenyl)-1-(2-fluorophenyl)-N-hydroxy-1,4,5,6-tetrahydrocyclopenta[c]pyrazole-5-carboxamide]",33,17,> 50000,
"Cc1c(F)cccc1[C@]1(C(=O)NO)Cc2cnn(-c3cccc(Cl)c3)c2C1 [Example 4, (S)-1-(3-Chlorophenyl)-5-(3-fluoro-2-methylphenyl)-N-hydroxy-1,4,5,6-tetrahydrocyclopenta[c]pyrazole-5-carboxamide]",72,61,> 50000,
"Cc1c(F)cccc1[C@]1(C(=O)NO)Cc2cnn(-c3ccc(F)cn3)c2C1 [Example 16, (S)-5-(3-Fluoro-2-methylphenyl)-1-(5-fluoropyridin-2-yl)-N-hydroxy-1,4,5,6-tetrahydrocyclopenta[c]pyrazole-5-carboxamide]",69,31,> 50000,
"Cc1c(F)cccc1[C@]1(C(=O)NO)Cc2cnn(-c3ccccc3)c2C1 [Example 1, (S)-5-(3-Fluoro-2-methylphenyl)-N-hydroxy-1-phenyl-1,4,5,6-tetrahydrocyclopenta[c]pyrazole-5-carboxamide]",59,28,> 50000,
"Cc1c(F)cccc1[C@]1(C(=O)NO)Cc2cnn(-c3ccccc3Cl)c2C1 [Example 7, (S)-1-(2-Chlorophenyl)-5-(3-fluoro-2-methylphenyl)-N-hydroxy-1,4,5,6-tetrahydrocyclopenta[c]pyrazole-5-carboxamide]",13,15,> 50000,
"Cc1c(F)cccc1[C@]1(C(=O)NO)Cc2cnn(C3CCCC3)c2C1 [Example 18, (S)-1-Cyclopentyl-5-(3-fluoro-2-methylphenyl)-N-hydroxy-1,4,5,6-tetrahydrocyclopenta[c]pyrazole-5-carboxamide]",163,37,> 50000,
"Cc1c(F)cccc1[C@]1(C(=O)NO)Cc2cnn(-c3ccc(OC(F)F)cc3)c2C1 [Example 20, (S)-1-(4-(Difluoromethoxy)phenyl)-5-(3-fluoro-2-methylphenyl)-N-hydroxy-1,4,5,6-tetrahydrocyclopenta[c]pyrazole-5-carboxamide]",250,109,> 50000,
"Cc1ccc(-n2ncc3c2C[C@](C(=O)NO)(c2cccc(F)c2C)C3)cc1 [Example 9, (S)-5-(3-Fluoro-2-methylphenyl)-N-hydroxy-1-(p-tolyl)-1,4,5,6-tetrahydrocyclopenta[c]pyrazole-5-carboxamide]",82,39,> 50000,

# The next lines start with the values.
"IC50 [1, 4] [nM]",IC50 [2] [nM],IC50 [3] [nM],IC50 ([1]; Lys-TFA substrate) [nM],SMILES
26,53,36500,,"Cc1c(F)cccc1[C@]1(C(=O)NO)Cc2nn(C)c(-c3ccc(F)cc3)c2C1 [Example 79, (R)-5-(3-Fluoro-2-methylphenyl)-3-(4-fluorophenyl)-N-hydroxy-2-methyl-2,4,5,6-tetrahydrocyclopenta[c]pyrazole-5-carboxamide]"
2600,3700,> 50000,,"Cc1c(F)cccc1C1(C(=O)NO)CCc2ncncc2C1 (stereo not drawn) [Example 45, 6-(3-Fluoro-2-methylphenyl)-N-hydroxy-5,6,7,8-tetrahydroquinazoline-6-carboxamide]"
,790,> 50000,1800,"Cc1c(F)cccc1C1(C(=O)NO)CCc2cn(CC(F)(F)F)nc2CC1 (single isomer, unassigned) [Example 85, E2-(abs)-6-(3-fluoro-2-methylphenyl)-N-hydroxy-2-(2,2,2-trifluoroethyl)-2,4,5,6,7,8-hexahydrocyclohepta[c]pyrazole-6-carboxamide]"
2980,710,> 50000,,"Cc1c(F)cccc1[C@]1(C(=O)NO)CCc2nn(Cc3ccccc3F)cc21 [Example 95, (R)-4-(3-fluoro-2-methylphenyl)-2-(2-fluorobenzyl)-N-hydroxy-2,4,5,6-tetrahydrocyclopenta[c]pyrazole-4-carboxamide]"
,820,> 50000,72,"Cc1c(F)cccc1C1(C(=O)NO)CCc2c(cnn2-c2ccccc2)C1 (single isomer, unassigned) [Example 31, E1-(abs)-5-(3-Fluoro-2-methylphenyl)-N-hydroxy-1-phenyl-4,5,6,7-tetrahydro-1H-indazole-5-carboxamide]"
230,67,> 50000,,"Cc1c(F)cccc1[C@]1(C(=O)NO)Cc2cnn(C(C)C)c2C1 [Example 53, (S)-5-(3-Fluoro-2-methylphenyl)-N-hydroxy-1-isopropyl-1,4,5,6-tetrahydrocyclopenta[c]pyrazole-5-carboxamide]"
1600,190,> 50000,,"Cc1c(F)cccc1C1(C(=O)NO)CCc2nc(NS(=O)(=O)c3ccccc3)sc2C1 (stereo not drawn) [Example 41, 6-(3-Fluoro-2-methylphenyl)-N-hydroxy-2-(phenylsulfonamido)-4,5,6,7-tetrahydrobenzo[d]thiazole-6-carboxamide]"
460,280,> 50000,,"Cc1cc(C)nc(-n2cc3c(n2)C[C@](C(=O)NO)(c2cccc(F)c2C)C3)n1 [Example 91, (S)-2-(4,6-Dimethylpyrimidin-2-yl)-5-(3-fluoro-2-methylphenyl)-N-hydroxy-2,4,5,6-tetrahydrocyclopenta[c]pyrazole-5-carboxamide]"
,200,> 50000,128,"Cc1c(F)cccc1C1(C(=O)NO)Cc2nc(-c3cnn(C)c3C)sc2C1 (single isomer, unassigned) [Example 77, E2-(abs)-2-(1,5-dimethyl-1H-pyrazol-4-yl)-5-(3-fluoro-2-methylphenyl)-N-hydroxy-5,6-dihydro-4H-cyclopenta[d]thiazole-5-carboxamide]"
,270,> 50000,51,"Cc1cc(F)ccc1-c1nc2c(s1)CC(C(=O)NO)(c1cccc(F)c1C)C2 (single isomer, unassigned) [Example 75, E2-(abs)-5-(3-Fluoro-2-methylphenyl)-2-(4-fluoro-2-methylphenyl)-N-hydroxy-5,6-dihydro-4H-cyclopenta[d]thiazole-5-carboxamide]"
,193,> 50000,49,"Cc1c(F)cccc1C1(C(=O)NO)Cc2nc(-c3ccccc3F)sc2C1 (single isomer, unassigned) [Example 62, E2-(abs)-5-(3-fluoro-2-methylphenyl)-2-(2-fluorophenyl)-N-hydroxy-5,6-dihydro-4H-cyclopenta[d]thiazole-5-carboxamide]"
